Laboratory results reported in patent publication US10106556B2, “Heterocyclic compound” (TAKEDA PHARMACEUTICAL COMPANY LIMITED, priority 2015, dated 2018).

Biological target: T1, His-hMAGL (recombinant polyhistidine tagged human MAGL protein) (Homo sapiens, UniProt Q99685)
T1 construct: made in house; host or cells: E. coli BL21(DE3)
T1 sequence (Q99685 1-303): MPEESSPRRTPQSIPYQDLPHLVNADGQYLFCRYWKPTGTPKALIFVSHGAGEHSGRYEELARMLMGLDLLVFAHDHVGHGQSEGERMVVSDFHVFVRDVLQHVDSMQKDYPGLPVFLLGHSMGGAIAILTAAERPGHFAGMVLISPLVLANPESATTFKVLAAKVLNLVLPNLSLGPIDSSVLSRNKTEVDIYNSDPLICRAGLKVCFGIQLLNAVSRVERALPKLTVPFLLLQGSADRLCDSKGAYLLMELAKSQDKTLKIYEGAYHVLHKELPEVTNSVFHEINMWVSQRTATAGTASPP
Assay: Measurement of MAGL inhibitory activity (arachidonic acid production from 2-arachidonylglycerol, RapidFire-mass spectrometry)
Assay type: biochemical
Conditions: MAGL inhibitory rate at 10 μM test compound, 60 min preincubation with His-hMAGL, 2-arachidonylglycerol substrate, 10 min reaction at room temperature
Method in brief: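 Inhibition (%) was derived from arachidonic acid levels relative to enzyme-free and compound-free groups. Product was measured by online C4 solid-phase extraction and triple-quadrupole MS in negative SRM mode, corrected by arachidonic acid-d8 (3 μM in the acetonitrile added). Substrate was 2-arachidonylglycerol; enzyme was His-tagged recombinant human MAGL.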

Compound | inhibition at 10 µM [%] | % inhibition (10 μM) (10 µM) [%]
O=C1COc2cc(F)c(C(=O)N3CC(OCc4ccc(C(F)(F)F)c(F)c4)C3)cc2N1 [Example 351, 7-fluoro-6-((3-((3-fluoro-4-(trifluoromethyl)benzyl)oxy)azetidin-1-yl)carbonyl)-2H-1,4-benzoxazin-3(4H)-one] | 99 | 
Cc1nc2c(OCC3CCN(C(=O)c4cc5c(cc4F)OCC(=O)N5)CC3)cccc2s1 [Example 187, 7-fluoro-6-((4-(((2-methyl-1,3-benzothiazol-4-yl)oxy)methyl)piperidin-1-yl)carbonyl)-2H-1,4-benzoxazin-3(4H)-one] | 98 | 
O=C1COc2cc(F)c(C(=O)N3CC(OCc4cccc(Cl)c4)C3)cc2N1 [Example 336, 6-((3-((3-chlorobenzyl)oxy)azetidin-1-yl)carbonyl)-7-fluoro-2H-1,4-benzoxazin-3(4H)-one] | 101 | 
O=C1COc2ccc(C(=O)N3CCC(COc4ccnc(Cl)c4Cl)CC3)cc2N1 [Example 46, 6-((4-(((2,3-dichloropyridin-4-yl)oxy)methyl)piperidin-1-yl)carbonyl)-2H-1,4-benzoxazin-3(4H)-one] | 98 | 
O=C1COc2cc(F)c(C(=O)N3CC(COc4ccc(N5CC(F)C5)cc4Cl)C3)cc2N1 [Example 291, 6-((3-((2-chloro-4-(3-fluoroazetidin-1-yl)phenoxy)methyl)azetidin-1-yl)carbonyl)-7-fluoro-2H-1,4-benzoxazin-3(4H)-one] | 100 | 
O=C1COc2cc(F)c(C(=O)N3CC(COc4ccc(Cl)cc4-c4cncc(F)c4)C3)cc2N1 [Example 200, 6-((3-((4-chloro-2-(5-fluoropyridin-3-yl)phenoxy)methyl)azetidin-1-yl)carbonyl)-7-fluoro-2H-1,4-benzoxazin-3(4H)-one] | 102 | 
O=C1COc2ccc(C(=O)N3CCC(COc4ccccc4C4CC4)CC3)cc2N1 [Example 65, 6-((4-((2-cyclopropylphenoxy)methyl)piperidin-1-yl)carbonyl)-2H-1,4-benzoxazin-3(4H)-one] | 96 | 
CC(Oc1ccc(F)cc1F)C1CN(C(=O)c2cc3c(cc2F)OCC(=O)N3)C1 (centres unmarked) [Example 301, 6-((3-(1-(2,4-difluorophenoxy)ethyl)azetidin-1-yl)carbonyl)-7-fluoro-2H-1,4-benzoxazin-3(4H)-one] |  | 99
O=C1COc2cc(F)c(C(=O)N3CC(COc4cccc5ocnc45)C3)cc2N1 [Example 106, 6-((3-((1,3-benzoxazol-4-yloxy)methyl)azetidin-1-yl)carbonyl)-7-fluoro-2H-1,4-benzoxazin-3(4H)-one] | 101 | 
O=C1COc2ncc(C(=O)N3CCC(COc4cccc(Cl)c4)CC3)cc2N1 [Example 13, 7-((4-((3-chlorophenoxy)methyl)piperidin-1-yl)carbonyl)-1H-pyrido[2,3-b][1,4]oxazin-2(3H)-one] | 99 | 
O=C1COc2cc(F)c(C(=O)N3CC(COc4cc(Cl)ccc4Cl)C3)cc2N1 [Example 125, 6-((3-((2,5-dichlorophenoxy)methyl)azetidin-1-yl)carbonyl)-7-fluoro-2H-1,4-benzoxazin-3(4H)-one] | 98 | 
O=C1COc2cc(F)c(C(=O)N3CC(COc4ccc(-c5cnn(C6CC6)c5)cc4F)C3)cc2N1 [Example 248, 6-((3-((4-(1-cyclopropyl-1H-pyrazol-4-yl)-2-fluorophenoxy)methyl)azetidin-1-yl)carbonyl)-7-fluoro-2H-1,4-benzoxazin-3(4H)-one] | 98 | 
O=C1COc2cc(F)c(C(=O)N3CCC(COC4CCOCC4)CC3)cc2N1 [Example 83, 7-fluoro-6-((4-((tetrahydro-2H-pyran-4-yloxy)methyl)piperidin-1-yl)carbonyl)-2H-1,4-benzoxazin-3(4H)-one] | 86 | 
O=C1COc2cc(F)c(C(=O)N3CC(OCc4ccc(-n5cccn5)cc4)C3)cc2N1 [Example 338, 7-fluoro-6-((3-((4-(1H-pyrazol-1-yl)benzyl)oxy)azetidin-1-yl)carbonyl)-2H-1,4-benzoxazin-3(4H)-one] | 101 | 
